Like-named read-outs stand apart in the source and are kept apart here.
How the values were obtained:
[1] = target: T1, human OX1R (Homo sapiens, UniProt O43613); assay: Agonist activity against OX1R: intracellular calcium (Fura-2AM, FDSS7000) in CHOOX1R cells; type: cell-based; conditions: for Emax at 0.1 µM / Emax at 1 µM / Emax at 10 µM: read-out: Response (%) OX1R
T1 construct: expressed in transfected cells; host or cells: CHO (Chinese hamster ovary) cells, line CHOOX1R, co-expressing NFAT-luciferase
T1 sequence (O43613 1-425): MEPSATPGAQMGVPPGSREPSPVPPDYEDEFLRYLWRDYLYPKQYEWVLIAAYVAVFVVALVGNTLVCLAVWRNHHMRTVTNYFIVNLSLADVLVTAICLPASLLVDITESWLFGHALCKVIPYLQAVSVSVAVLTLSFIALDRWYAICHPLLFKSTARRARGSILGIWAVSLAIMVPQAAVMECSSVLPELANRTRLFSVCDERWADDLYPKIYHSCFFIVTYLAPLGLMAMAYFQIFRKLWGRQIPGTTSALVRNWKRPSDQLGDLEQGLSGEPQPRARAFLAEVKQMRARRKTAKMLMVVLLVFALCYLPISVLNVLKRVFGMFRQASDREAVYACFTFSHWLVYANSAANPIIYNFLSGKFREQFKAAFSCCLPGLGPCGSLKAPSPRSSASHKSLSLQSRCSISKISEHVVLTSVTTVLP
How it was run: (§1)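 Response is agonist activity at 0.1, 1.0 or 10 μM compound as a percentage of the orexin-A full-agonist maximum, taken from 340/380 nm Fura-2 ratio changes. Each cell line is CHO constitutively expressing human OX1R or OX2R with NFAT-luciferase, dye-loaded 60 min with 5 μM Fura-2AM; compound range 10^−7–10^−5 M, 1% DMSO.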

[2] = target: T2, human OX2R (Homo sapiens, UniProt O43614); assay: Agonist activity against OX2R: intracellular calcium (Fura-2AM, FDSS7000) in CHOOX2R cells; type: cell-based; conditions: relative to orexin-A as full agonist (100%)
T2 construct: expressed in transfected cells; host or cells: CHO (Chinese hamster ovary) cells, line CHOOX2R, co-expressing NFAT-luciferase
T2 sequence (O43614 1-444): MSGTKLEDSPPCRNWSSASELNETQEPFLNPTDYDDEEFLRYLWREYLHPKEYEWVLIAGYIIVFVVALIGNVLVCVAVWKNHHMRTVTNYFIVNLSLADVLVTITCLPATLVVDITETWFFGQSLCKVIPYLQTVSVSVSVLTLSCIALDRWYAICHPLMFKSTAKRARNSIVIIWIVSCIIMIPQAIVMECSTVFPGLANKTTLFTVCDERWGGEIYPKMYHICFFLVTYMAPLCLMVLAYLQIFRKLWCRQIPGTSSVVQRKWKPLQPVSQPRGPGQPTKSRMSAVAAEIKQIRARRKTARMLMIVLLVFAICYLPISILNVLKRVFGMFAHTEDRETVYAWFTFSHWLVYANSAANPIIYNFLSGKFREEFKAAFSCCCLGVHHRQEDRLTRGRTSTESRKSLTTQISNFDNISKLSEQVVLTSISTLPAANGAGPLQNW
How it was run: as §1

[3] = test compound 0.1 μM, relative to orexin-A as full agonist (100%)
[4] = test compound 1.0 μM, relative to orexin-A as full agonist (100%)
[5] = test compound 10 μM, relative to orexin-A as full agonist (100%)
[6] = 0.1 μM test compound, relative to orexin-A as full agonist (100%)
[7] = 1.0 μM test compound, relative to orexin-A as full agonist (100%)
[8] = 10 μM test compound, relative to orexin-A as full agonist (100%)

Structure (SMILES)	Response (%) OX2R ([2]; test compound 0.1 μM)	Response (%) OX2R ([2]; test compound 1.0 μM)	Response (%) OX2R ([2]; test compound 10 μM)	Response (%) OX1R [1, 6]	Response (%) OX1R [1, 7]	Response (%) OX1R [1, 8]	Response (%) OX2R ([2]; 0.1 μM test compound)	Response (%) OX2R ([2]; 1.0 μM test compound)	Response (%) OX2R ([2]; 10 μM test compound)	other results
COc1ccc(C(=O)NCCCNC(=O)OC(C)(C)C)cc1S(=O)(=O)Nc1cccc(NC(=O)Nc2cccc(N(C)C)c2)c1 [Example 104]	7%	79%	99%							Response (%) OX1R [1, 3]: 7%; Response (%) OX1R [1, 4]: 6%; Response (%) OX1R [1, 5]: 7%
COc1ccc(-c2cccc(C(=O)N(C)C)c2)cc1S(=O)(=O)Nc1cccc(NC(=O)c2cccc(C)c2)c1 [Example 15]				<5%	<5%	<5%	12%	81%	114%	
COc1ccc(-c2cccc(C(=O)N(C)C)c2)cc1S(=O)(=O)Nc1cccc(NC(=O)Nc2ccccc2Br)c1 [Example 43]				<5%	<5%	10%	102%	105%	104%	
COc1ccc(-c2cccc(C(=O)N(C)C)c2)cc1S(=O)(=O)Nc1cccc(N2CCCN(c3ccc(N(C)C)cc3)C2=O)c1 [Example 135]	94%	66%	64%							Response (%) OX1R [1, 3]: 8%; Response (%) OX1R [1, 4]: 14%; Response (%) OX1R [1, 5]: 83%
COc1ccc(-c2cccc(C(=O)N(C)C)c2)cc1S(=O)(=O)Nc1cccc(N2CCN(c3ccccc3)C2=O)c1 [Example 128, 4′-methoxy-N,N-dimethyl-3′-(N-(3-(2-oxo-3-phenylimidazolidin-1-yl)phenyl)sulfamoyl)-[1,1′-biphenyl]-3-carboxamide]	10%	77%	105%							Emax at 0.1 µM [1]: < 5%; Emax at 1 µM [1]: < 5%; Emax at 10 µM [1]: 6%
COc1ccc(-c2cccc(C(=O)N(C)C)c2)cc1S(=O)(=O)Nc1cccc(NCc2ccccc2Br)c1 [Example 28]				<5%	<5%	<5%	6%	54%	81%	
COc1ccc(-c2cccc(C(=O)N(C)C)c2)cc1S(=O)(=O)Nc1cccc(NC(=O)c2cccc(N(C)C)c2)c1 [Example 7]				6%	8%	27%	8%	10%	24%	
COc1ccc(-c2cccc(C(=O)N(C)C)c2)cc1S(=O)(=O)Nc1cccc(Nc2c(Nc3cccc(C)c3)c(=O)c2=O)c1 [Example 80, 3′-(N-(3-((3,4-dioxo-2-(m-tolylamino)cyclobut-1-en-1-yl)amino)phenyl)sulfamoyl)-4′-methoxy-N,N-dimethyl-[1,1′-biphenyl]-3-carboxamide]							<5%	<5%	23%	Emax at 0.1 µM [1, 6]: < 5%; Emax at 1 µM [1, 7]: < 5%; Emax at 10 µM [1, 8]: < 5%
COc1ccc(-c2cccc(C(=O)N(C)C)c2)cc1S(=O)(=O)Nc1ccc(NC(=O)Nc2cccc(N(C)C)c2)cc1 [Example 122]	7%	7%	10%							Response (%) OX1R [1, 3]: <5%; Response (%) OX1R [1, 4]: <5%; Response (%) OX1R [1, 5]: <5%
COc1ccccc1Nc1c(Nc2cccc(NS(=O)(=O)c3cc(-c4cccc(C(=O)N(C)C)c4)ccc3OC)c2)c(=O)c1=O [Example 83]	<5%	<5%	11%							Response (%) OX1R [1, 3]: <5%; Response (%) OX1R [1, 4]: <5%; Response (%) OX1R [1, 5]: 9%
COc1ccc(-c2cccc(C(=O)N(C)C)c2)cc1S(=O)(=O)Nc1cccc(NC(=O)N(C)c2cccc(N(C)C)c2)c1 [Example 127, 3′-(N-(3-(3-(3-(dimethylamino)phenyl)-3-methylureido)phenyl)sulfamoyl)-4′-methoxy-N,N-dimethyl-[1,1′-biphenyl]-3-carboxamide]	106%	90%	73%							Emax at 0.1 µM [1]: < 5%; Emax at 1 µM [1]: 7%; Emax at 10 µM [1]: 56%
COc1ccc(-c2cccc(C(=O)N(C)C)c2)cc1S(=O)(=O)Nc1cccc(NC(=O)Nc2cccc(C(=O)N(C)C)c2)c1 [Example 49]				<5%	<5%	<5%	26%	89%	92%	
COc1ccc(-c2cccc(C(=O)N(C)C)c2)cc1S(=O)(=O)Nc1cccc(NC(=O)c2ccc3ccccc3c2)c1 [Example 9]				5%	6%	5%	<5%	41%	47%	
COc1ccc(C(=O)NCc2ccccc2)cc1S(=O)(=O)Nc1cccc(NC(=O)Nc2cccc(N(C)C)c2)c1 [Example 100, N-benzyl-3-(N-(3-(3-(3-(dimethylamino)phenyl)ureido)phenyl)sulfamoyl)-4-methoxybenzamide]	<5%	7%	49%							Emax at 0.1 µM [1, 3]: < 5%; Emax at 1 µM [1, 4]: < 5%; Emax at 10 µM [1, 5]: < 5%
COc1cccc(NC(=O)Nc2cccc(NS(=O)(=O)c3cc(-c4cccc(C(=O)N(C)C)c4)ccc3OC)c2)c1 [Example 44]				<5%	<5%	10%	100%	104%	95%	
COc1ccc(-c2cccc(C(=O)N(C)C)c2)cc1S(=O)(=O)Nc1cccc(NC(=O)Nc2cccnc2)c1 [Example 69]				6%	6%	6%	7%	90%	127%	
